Experimental data from patent publication US10759994B2, “Luminogenic transition metal-based pyridyl complex and its use” (City University of Hong Kong, priority 2016, dated 2020).

Columns and labels:
[1] = Photophysical data (emission wavelength, lifetime, quantum yield); format: physicochemical
Description: Electronic absorption spectra were recorded on an Agilent 8453 diode array spectrophotometer. Steady-state emission spectra were recorded on a HORIBA JOBIN YVON Fluorolog TCSPC spectrofluorometer. Unless specified otherwise, all solutions for photophysical studies were degassed with no fewer than four successive freeze-pump-thaw cycles and stored in a 10-cm^3 round bottomed flask equipped with a side-arm 1-cm fluorescence cuvette and sealed from the atmosphere by a Rotaflo HP6/6 quick-release Teflon stopper. Luminescence quantum yields were measured by the optically dilute method (Demas, J. N. and Crosby, G. A., J. Phys. Chem. 1971, 75, 991) using an aerated aqueous solution of [Ru(bpy)3]Cl2 (ϕem=0.028, λex=455 nm) as the standard solution (Wallace, L. and Rillema, D. P., Inorg. Chem., 1993, 32, 3836). The concentrations of the standard and sample solutions were adjusted until the absorbance at 455 nm was 0.1. The emission lifetimes were measured on a HORIBA JOBIN YVON Fluorolog TCSPC spectrofluorometer in the Fast MCS lifetime mode with a NanoLED N-375 as the excitation source.
The very low emission quantum yield of complexes 1a-5b compared with other related iridium(III) and ruthenium(II) systems are expected to be due to quenching by the nitrone moiety.
In particular, the emission quantum yields of the iridium(III) complexes 1a, 2a and 3a (ϕem<0.021; Table 1) were much lower than those of common cyclometalated iridium(Ill) polypyridyl complexes (Li, S. P.-Y. et al., Chem. Eur. J. 2010, 16, 8329; Li, S. P.-Y. et al., Biomaterials 2013, 34, 7519; Lo, K. K.-W. et al., Chem. Commun. 2013, 49, 4271) which is expected to be a consequence of efficient quenching associated with isomerization of the C═N group.

BCN-BSA = target: T1, BCN-BSA (Bos taurus, UniProt P02769); test: Emission enhancement upon reaction with BCN-BSA; format: biochemical, Bovine; details: complex 10 μM, protein 3.78 μM, aerated potassium phosphate buffer (50 mM, pH 7.4)/DMSO (99:1, v/v), 298 K
T1 construct: purchased Calbiochem

[2] = SPANC reaction kinetics with BCN—OH by UV/Vis absorption spectroscopy; format: physicochemical; details: for Second-order rate constants (k2): reaction with BCN—OH in MeOH at 298 K
Description: The reactivity of the iridium(III) and ruthenium(II) pyridyl complexes toward a strained alkyne derivative BCN—OH in MeOH at 298 K was studied. The second-order rate constants (k2) of the strain-promoted alkyne-nitrone cycloaddition (SPANC) reaction of complexes 1a-5b are shown in Tables 3 and 4, respectively. The k2 values of the iridium(III) complexes 1a, 2a and 3a and the ruthenium(II) complexes 1b, 2b, 3b, 4b, and 5b were determined to be 0.116-0.238 and 0.078-3.06 M^−1 s^−1, respectively, which are about 1.95-76.5 times that of the free ligand bpy-nitrone-Me (k2=0.040 M^−1 s^−1). This is attributed to the electron-withdrawing effects of the positively-charged metal centers. […] The accelerated reaction kinetics is assumed to originate from the presence of the more electron-withdrawing phenyl ring at the N-position of the nitrone moiety. Thus, the accelerated reaction kinetics render complexes 1a-5b highly advantageous bioorthogonal probes for biomolecules modified with a strained alkyne moiety.
More specifically, the SPANC reaction kinetics of complexes 1a 5b was studied by UV/Ms absorption spectroscopy. For the ligand bpy-nitrone-Me and the iridium(III) complexes 1a-3a, the k2 values were measured under pseudo first order conditions with a 25- to 100-fold excess of BCN—OH in MeOH at 298 K. The reaction process was followed by monitoring the exponential decay of the absorbance at 306-342 nm upon addition of BCN—OH. The final concentrations of the nitrone compounds were 10 μM and those of BCN—OH ranged from 0.25 to 1.0 mM. For the ruthenium(II) complexes 1b-5b, the k2 values were determined under pseudo first order conditions with a 50- to 200-fold excess of BCN—OH in MeOH at 298 K. The reaction process was monitored by following the exponential decay of the absorbance at 329 nm. The final concentrations of the complexes were 10 μM and those of BCN—OH ranged from 0.5 to 2.0 mM. The data were fitted to a single-exponential equation to give the observed rate constants (kobs), which were plotted against the concentrations of BCN—OH to obtain the k2 from the slope of the plots.

[3] = Emission enhancement upon reaction with BCN—OH; format: physicochemical; details: complex 10 μM, BCN—OH 1 mM, aerated MeOH, 298 K
Excerpt: The strained alkyne BCN—OH has been selected as a model substrate. […] Namely, these findings confirm that complexes 1a-5b remained non-emissive or weakly emissive as long as the nitrone moiety is intact and resume their strongly emissive behavior upon cycloaddition reaction with strained alkynes.

HeLa cells = format: cell-based; details: complex 40 μM; for Percentage of survival: 37° C., 6 h; for Cell viability with BCN-C10 pretreatment: BCN-C10 pretreatment (200 μM, 1 h)
Excerpt: The results particularly highlight the potential of the luminogenic transition metal-based polypyridyl complexes of the present invention for bioorthogonal labeling. […] Importantly, although the cellular uptake of complex 2b was substantially higher, it was much less cytotoxic than complex 4b toward the pretreated cells. […] The results also highlight the potential therapeutic use of intracellular bioorthogonal coupling reactions in activating the cytotoxicity of metallo drugs.
For determining the cytotoxicity of complexes 1 b 5b, HeLa cells were seeded in a 96-well flat-bottomed microplate (about 10,000 cells well^−1) in growth medium (100 μL) and incubated at 37° C. under a 5% CO2 atmosphere for 24 h. The cells were then incubated in either blank medium or growth medium/DMSO (99:1, v/v) (100 μL) containing BCN-C10 (200 μM) in the dark at 37° C. under a 5% CO2 atmosphere for 1 h. The medium was then removed, the cell layer was washed with PBS, and further incubated in growth medium/DMSO (99:1, v/v) (100 μL) containing the ruthenium(II) complexes (40 μM) in the dark at 37° C. under a 5% CO2 atmosphere for 6, 12, or 24 h. Wells containing untreated cells were used as blank control. The microplate was incubated at 37° C. under a 5% CO2 atmosphere for another 4 h. The growth medium was then removed, and DMSO (200 μL) was added to each well. The microplate was further incubated for 15 min. The absorbance of the solutions at 570 nm was measured with a SPECTRAmax 340 microplate reader.

unmodified BSA = target: T2, unmodified BSA (Bos taurus, UniProt P02769); test: Emission enhancement with unmodified BSA (negative control); format: biochemical, Bovine; details: complex 10 μM, protein 3.78 μM, aerated potassium phosphate buffer (50 mM, pH 7.4)/DMSO (99:1, v/v), 298 K
T2 construct: purchased Calbiochem

[4] = Potassium phosphate buffer (50 mM, pH 7.4)/DMSO (9:1, v/v), 298 K
[5] = Potassium phosphate buffer (50 mM, pH 7.4)/MeOH (4:1, v/v), 298 K

T1 sequence (P02769 25-607): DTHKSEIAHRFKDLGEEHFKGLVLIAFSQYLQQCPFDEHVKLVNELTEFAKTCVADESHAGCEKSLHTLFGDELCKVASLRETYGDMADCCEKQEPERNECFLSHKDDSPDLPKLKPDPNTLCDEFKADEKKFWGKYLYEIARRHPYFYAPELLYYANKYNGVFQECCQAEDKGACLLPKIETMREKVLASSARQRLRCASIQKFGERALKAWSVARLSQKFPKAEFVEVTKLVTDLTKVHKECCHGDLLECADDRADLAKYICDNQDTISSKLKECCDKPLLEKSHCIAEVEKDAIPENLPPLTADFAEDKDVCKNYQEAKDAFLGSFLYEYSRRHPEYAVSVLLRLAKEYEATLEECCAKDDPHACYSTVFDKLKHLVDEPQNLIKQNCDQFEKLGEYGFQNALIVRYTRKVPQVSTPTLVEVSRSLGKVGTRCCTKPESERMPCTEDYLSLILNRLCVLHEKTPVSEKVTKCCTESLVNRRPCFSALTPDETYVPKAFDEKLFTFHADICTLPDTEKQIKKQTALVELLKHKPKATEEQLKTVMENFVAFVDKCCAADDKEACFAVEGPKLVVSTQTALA
T2 sequence (P02769 25-607): as above

Compound	Φem ([1]; CH2Cl2, 298 K)	τo ([1]; CH2Cl2, 298 K) [μs]	Φem ([1]; MeOH, 298 K)	λem ([1]; MeOH, 298 K) [nm]	τo ([1]; MeOH, 298 K) [μs]	Φem [1, 4]	λem [1, 4] [nm]	τo [1, 4] [μs]	I/Io BCN-BSA (BCN-BSA)	Second-order rate constants (k2) [2] [M⁻¹ s⁻¹]	Emission enhancement factors (I/Io) [3]	Percentage of survival (HeLa cells) [%]	I/Io BSA (unmodified BSA)	Cell viability with BCN-C10 pretreatment (HeLa cells)	Φem [1, 5]	λem [1, 5] [nm]	τo [1, 5] [μs]	k2 relative to those of the N-methyl nitrone complexes 1b, 2b, 3b and 4b ([2]; BCN—OH in MeOH at 298 K)
Cc1ccnc(-c2cc(/C=[N+](/C)[O-])ccn2)c1.F[P-](F)(F)(F)(F)F.F[P-](F)(F)(F)(F)F.[Ru+2].c1ccc(-c2ccccn2)nc1.c1ccc(-c2ccccn2)nc1 [Complex 1b]	0.006	1.20	0.006	609	0.94	0.004	611	0.64	10.7	0.084 ± 0.005	9.5	91.37 ± 5.73	1.1	–	–	–	–	–
CCCCNC(=O)c1ccnc(-c2cc(C(=O)NCCCC)ccn2)c1.CCCCNC(=O)c1ccnc(-c2cc(C(=O)NCCCC)ccn2)c1.Cc1ccnc(-c2cc(/C=[N+](/C)[O-])ccn2)c1.F[P-](F)(F)(F)(F)F.F[P-](F)(F)(F)(F)F.[Ru+2] [Complex 2b]	0.013	1.68	0.006	647	0.98	0.003	650	0.52	16.9	0.086 ± 0.005	7.1	94.83 ± 16.20	1.1	maintained good biocompatibility	–	–	–	–
Cc1ccnc(-c2cc(/C=[N+](\[O-])c3ccccc3)ccn2)c1.F[P-](F)(F)(F)(F)F.F[P-](F)(F)(F)(F)F.[Ru+2].c1ccc(-c2ccccn2)nc1.c1ccc(-c2ccccn2)nc1 [Complex 5b]	–	–	0.015	608	0.63	–	–	–	9.6	–	3.9	92.78 ± 8.54	1.1	maintained good biocompatibility	0.006	610	0.69	at least 36 fold
